The values that follow come from patent US12404295B2, “(Hetero)aryl-methyl-thio-beta-D-galactopyranoside derivatives” (Idorsia Pharmaceuticals Ltd, priority 2019, dated 2025).

Experiment [1] deals with human Gal-1 (hGal-1) (Homo sapiens (Human), UniProt P09382). Kind of experiment: competitive binding assay: biotinylated hGal-1 binding to microplate-adsorbed asialofetuin (ASF). To be noted: Table 15; read-out: IC50 (Galectin-1 inhibition). The method, boiled down: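 Biotinylated human Gal-1 (300-1000 ng/mL) competes with serially diluted compound for binding to ASF-coated plates, 3 h at 4° C. Bound protein detected with streptavidin-peroxidase and ABTS substrate (spectrophotometric). IC50 given as mean of several measurements.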

For experiment [2], the target named is human Gal-3 (hGal-3) (Homo sapiens (Human), UniProt P17931). Kind of experiment: competitive binding assay: biotinylated hGal-3 binding to microplate-adsorbed asialofetuin (ASF). In short, it runs like this:
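Compounds serially diluted in DMSO compete with asialofetuin for biotinylated human Gal-3; plates are incubated 3 h at 4 °C, washed, then treated 1 h at 4 °C with streptavidin-peroxidase (80 ng/mL) and developed with ABTS. IC50 values are means of several measurements.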

[3] abbreviates: Table 11, read-out: IC50 (Gal-3 inhibition).
[4] abbreviates: Table 5, read-out: IC50 (Gal-3 inhibition).
Setting [5] is: Gal-3 inhibition, binding of biotinylated hGal-3 to ASF, mean values, read-out: IC50.

Like-named read-outs stand apart in the source and are kept apart here.

human Gal-1 (hGal-1), sequence (P09382 whole entry): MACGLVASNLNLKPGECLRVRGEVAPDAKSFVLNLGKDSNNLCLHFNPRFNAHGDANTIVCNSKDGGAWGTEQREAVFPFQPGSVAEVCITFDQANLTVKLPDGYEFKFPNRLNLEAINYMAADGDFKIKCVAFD
human Gal-3 (hGal-3), sequence (P17931 whole entry): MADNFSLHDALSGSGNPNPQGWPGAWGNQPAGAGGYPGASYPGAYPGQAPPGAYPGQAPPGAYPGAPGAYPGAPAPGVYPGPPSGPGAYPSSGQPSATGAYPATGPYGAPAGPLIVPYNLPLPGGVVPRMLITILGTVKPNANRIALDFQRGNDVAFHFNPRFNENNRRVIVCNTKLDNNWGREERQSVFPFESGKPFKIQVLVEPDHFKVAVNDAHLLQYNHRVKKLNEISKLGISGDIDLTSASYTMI

One may read the IC50 as the concentration that inhibits the measured activity by half. With `CO[C@@H]1[C@@H](n2cc(-c3cc(F)c(F)c(F)c3)nn2)[C@@H](O)[C@@H](CO)O[C@H]1SC(c1nc(C)c(C)nc1C)C1(O)CCC(F)(F)CC1` (stereo partly drawn) [Example 2.44.119.I., (2R,3R,4S,5R,6S)-6-(((4,4-Difluoro-1-hydroxycyclohexyl)(3,5,6-trimethylpyrazin-2-yl)methyl)thio)-2-(hydroxymethyl)-5-methoxy-4-(4-(3,4,5-trifluorophenyl)-1H-1,2,3-triazol-1-yl)tetrahydro-2H-pyran-3-ol], the IC50 stood at 1300 nM in experiment [1] and 260 nM in experiment [2] (setting [3]).
On to `CO[C@@H]1[C@@H](n2cc(-c3ccc(Cl)c(F)c3F)nn2)[C@@H](O)[C@@H](CO)O[C@H]1SC(c1ncccc1C)C1(O)CCC(F)(F)CC1` (stereo partly drawn) [Example 22.44.126.I., (2R,3R,4S,5R,6S)-4-(4-(4-Chloro-2,3-difluorophenyl)-1H-1,2,3-triazol-1-yl)-6-(((4,4-difluoro-1-hydroxycyclohexyl)(3-methylpyridin-2-yl)methyl)thio)-2-(hydroxymethyl)-5-methoxytetrahydro-2H-pyran-3-ol], for which the IC50 was 920 nM in experiment [1] and 70 nM in experiment [2] (Table 14, read-out: IC50 (Gal-3 inhibition)).
For `Cc1noc(C2CC2)c1[C@H](S[C@@H]1O[C@H](CO)[C@H](O)[C@H](n2cc(-c3cc(F)c(F)c(F)c3)nn2)[C@H]1O)C1(O)CCCCC1` [Example 2.39.128S., (2S,3R,4S,5R,6R)-2-(((S)-(5-Cyclopropyl-3-methylisoxazol-4-yl)(1-hydroxycyclohexyl)methyl)thio)-6-(hydroxymethyl)-4-(4-(3,4,5-trifluorophenyl)-1H-1,2,3-triazol-1-yl)tetrahydro-2H-pyran-3,5-diol], the IC50 in experiment [1] came out at 23200 nM; in experiment [2] (setting [4]) it was 3210 nM.
In the case of `CC(C)(O)C(S[C@@H]1O[C@H](CO)[C@H](O)[C@H](n2cc(-c3ccc(C#N)c(F)c3)nn2)[C@H]1O)c1ccccc1C(F)(F)F` (stereo partly drawn) [Example 5.31.112., 4-(1-((2S,3R,4S,5R,6R)-3,5-Dihydroxy-2-((2-hydroxy-2-methyl-1-(2-(trifluoromethyl)phenyl)propyl)thio)-6-(hydroxymethyl)tetrahydro-2H-pyran-4-yl)-1H-1,2,3-triazol-4-yl)-2-fluorobenzonitrile], the IC50 in experiment [1] came to 3580 nM; in experiment [2] (setting [5]), 1500 nM.
`CCc1cccnc1C(S[C@@H]1O[C@H](CO)[C@H](O)[C@H](n2cc(-c3cc(F)c(F)c(F)c3)nn2)[C@H]1OC)C1(O)CCC(F)(F)CC1` (stereo partly drawn) [Example 2.44.142.I., (2R,3R,4S,5R,6S)-6-(((4,4-Difluoro-1-hydroxycyclohexyl)(3-ethylpyridin-2-yl)methyl)thio)-2-(hydroxymethyl)-5-methoxy-4-(4-(3,4,5-trifluorophenyl)-1H-1,2,3-triazol-1-yl)tetrahydro-2H-pyran-3-ol]: the results for the 50% inhibitory concentration (IC50) in experiment [1] and in experiment [2] (setting [3]) were 190 nM and 50 nM, respectively.
`Cc1ccccc1[C@@H](S[C@@H]1O[C@H](CO)[C@H](O)[C@H](n2cc(-c3cc(F)c(F)c(F)c3)nn2)[C@H]1O)C(C)(C)O` [Example 2.31.102R., (2S,3R,4S,5R,6R)-2-(((R)-2-Hydroxy-2-methyl-1-(o-tolyl)propyl)thio)-6-(hydroxymethyl)-4-(4-(3,4,5-trifluorophenyl)-1H-1,2,3-triazol-1-yl)tetrahydro-2H-pyran-3,5-diol]: the IC50 in experiment [1] was determined as 1420 nM; in experiment [2] (setting [5]), 120 nM.
Regarding `Cc1ccccc1C(S[C@@H]1O[C@H](CO)[C@H](O)[C@H](n2cc(-c3cc(F)c(F)c(F)c3)nn2)[C@H]1O)C1(O)CC(C)C1` (stereo partly drawn) [Example 2.36.102., (2S,3R,4S,5R,6R)-2-(((1-Hydroxy-3-methylcyclobutyl)(o-tolyl)methyl)thio)-6-(hydroxymethyl)-4-(4-(3,4,5-trifluorophenyl)-1H-1,2,3-triazol-1-yl)tetrahydro-2H-pyran-3,5-diol], the 50% inhibitory concentration (IC50) in experiment [1] turned out to be 13200 nM; in experiment [2] (setting [4]), 460 nM.
Turning to `Cc1nc(C(S[C@@H]2O[C@H](CO)[C@H](O)[C@H](n3cc(-c4cc(F)c(F)c(F)c4)nn3)[C@H]2O)C(C)(C)O)c(C)o1` (stereo partly drawn) [Example 2.31.122., (2S,3R,4S,5R,6R)-2-((1-(2,5-Dimethyloxazol-4-yl)-2-hydroxy-2-methylpropyl)thio)-6-(hydroxymethyl)-4-(4-(3,4,5-trifluorophenyl)-1H-1,2,3-triazol-1-yl)tetrahydro-2H-pyran-3,5-diol], the half-maximal inhibitory concentration (IC50) in experiment [1] was 2140 nM; in experiment [2] (setting [5]), 880 nM.
The corresponding values for `Cc1ccnnc1C(S[C@@H]1O[C@H](CO)[C@H](O)[C@H](n2cc(-c3cc(F)c(F)c(F)c3)nn2)[C@H]1O)C1(O)CCC(F)(F)CC1` (stereo partly drawn) [Example 2.44.135., (2S,3R,4S,5R,6R)-2-(((4,4-Difluoro-1-hydroxycyclohexyl)(4-methylpyridazin-3-yl)methyl)thio)-6-(hydroxymethyl)-4-(4-(3,4,5-trifluorophenyl)-1H-1,2,3-triazol-1-yl)tetrahydro-2H-pyran-3,5-diol] are 450 nM and 70 nM.
With `CO[C@@H]1[C@@H](n2cc(-c3cc(F)c(F)c(F)c3)nn2)[C@@H](O)[C@@H](CO)O[C@H]1S[C@H](c1ncccc1C)C1(O)CCC(F)(F)CC1` [Example 2.44.126R.I., (2R,3R,4S,5R,6S)-6-(((R)-(4,4-Difluoro-1-hydroxycyclohexyl)(3-methylpyridin-2-yl)methyl)thio)-2-(hydroxymethyl)-5-methoxy-4-(4-(3,4,5-trifluorophenyl)-1H-1,2,3-triazol-1-yl)tetrahydro-2H-pyran-3-ol], the IC50 in experiment [1] is 680 nM; in experiment [2] (Table 9, 2-OMe-Gal inhibitors, read-out: IC50 (Gal-3 inhibition)), 70 nM.
Consider `Cc1ccccc1[C@H](S[C@@H]1O[C@H](CO)[C@H](O)[C@H](n2cc(-c3cc(F)c(F)c(F)c3)nn2)[C@H]1O)C1(O)CCCCC1` [Example 2.39.102S., (2S,3R,4S,5R,6R)-2-(((S)-(1-Hydroxycyclohexyl)(o-tolyl)methyl)thio)-6-(hydroxymethyl)-4-(4-(3,4,5-trifluorophenyl)-1H-1,2,3-triazol-1-yl)tetrahydro-2H-pyran-3,5-diol], for which the half-maximal inhibitory concentration (IC50) worked out at 24000 nM in experiment [1] and 4540 nM in experiment [2] (setting [4]).
For the compound `Cc1ccccc1C(S[C@@H]1O[C@H](CO)[C@H](O)[C@H](n2cc(-c3cc(F)c(F)c(F)c3)nn2)[C@H]1O)C1(O)CCCCC1` (stereo partly drawn) [Example 2.39.102., (2S,3R,4S,5R,6R)-2-(((1-Hydroxycyclohexyl)(o-tolyl)methyl)thio)-6-(hydroxymethyl)-4-(4-(3,4,5-trifluorophenyl)-1H-1,2,3-triazol-1-yl)tetrahydro-2H-pyran-3,5-diol], the IC50 is 1600 nM in experiment [1] and 90 nM in experiment [2] (setting [4]).
For `Cc1cccnc1[C@H](S[C@@H]1O[C@H](CO)[C@H](O)[C@H](n2cc(-c3cc(F)c(F)c(F)c3)nn2)[C@H]1O)C1(O)CCC(F)(F)CC1` [Example 2.44.126S., (2S,3R,4S,5R,6R)-2-(((S)-(4,4-Difluoro-1-hydroxycyclohexyl)(3-methylpyridin-2-yl)methyl)thio)-6-(hydroxymethyl)-4-(4-(3,4,5-trifluorophenyl)-1H-1,2,3-triazol-1-yl)tetrahydro-2H-pyran-3,5-diol], the IC50 in experiment [1] was 26500 nM; in experiment [2] (setting [5]) it was 3350 nM.
